Test system: Chlamydia
Test: Detection of Chlamydia-infected white blood cells in hyperlipidemic patients with delta-tocotrienol supplementation
Format: in vivo, human
Method: FIG. 6 illustrates detection and quantification of Chlamydia-infected white blood cells in hyperlipidemic patients with delta-tocotrienol supplementation. Buffy coats of hyperlipidemic patients were immunostained, and for each sample, aliquots of 10,000 cells were assessed. A dotplot of a hyperlipidemic patient prior to supplementation with delta-tocotrienol is shown in the left panel, and a dotplot of a hyperlipidemic patient after 2 months of delta-tocotrienol supplementation (100 mg/day) is shown in the right panel.
Flow Cytometry Assessment of WBC: Flow cytometry (FC) quantification of Chlamydia-infected peripheral WBC used PBS rinsed buffy coat (BC) from HP samples. The BC cells were fixed and permeabilized (1% paraformaldehyde and 1% Triton X-100, 10 min. at RT; Aldrich Chemical Company, Inc., Milwaukee, Wis.). BCs were separately incubated for 1 hour with a 1:200 dilution of rabbit anti-Chlamydia primary antibody (Biodesign International, Saco, Me.) followed by a 1 hour incubation with a 1:150 dilution of FITC-conjugated goat anti-rabbit IgG (H+L) (Jackson ImmunoResearch, West Grove, Pa.), PBS rinsed X3, and mono-dispersed by passage through a nylon mesh filter (Lab-Line Instruments Inc, Melrose Park, Ill.). Sufficient WBCs were added to obtain 10,000 cells/tube and samples were analyzed for carriage of Chlamydia-infected cells by FACScan (Becton, Dickinson and Company, Franklin Lakes, N.J.).
Detection of Chlamydia-Infected White Blood Cells (WBC): Smears of whole blood from each 10 ml hyperlipidemic HP blood sample, average donor age 54 years, were fixed with 70% MEOH for subsequent staining. Immunostaining used a 1:125 dilution of rabbit polyclonal anti-Chlamydia EB antibody followed by a 1:125 dilution of TRITC-conjugated goat anti-rabbit antibody (H+L) (Jackson ImmunoResearch, West Grove, Pa.). Slides were incubated at room temperature for 1 hour with each diluted antibody, rinsed, mounted and sealed as described above. Digital images of optical sections through these samples were acquired with a Zeiss LSM 510 Meta Confocal System.
In a clinical study, buffy coats from blood samples drawn both before and after delta-tocotrienol supplementation were immunostained for detection of Chlamydia-infected cells. The samples were tested for LDL levels both before and after delta-tocotrienol supplementation.

delta tocotrienol
Chlamydial Infection Status after Delta-Tocotrienol Supplementation (Patient 1, status before: negative): negative
Chlamydial Infection Status after Delta-Tocotrienol Supplementation (Patient 2, status before: positive): negative
Chlamydial Infection Status after Delta-Tocotrienol Supplementation (Patient 3, status before: strong positive): negative
Chlamydia-infected white blood cells by flow cytometry (FIG. 6) (hyperlipidemic patient, 2 months supplementation, 100 mg/day, buffy coat, 10,000 cells): reduced the granularity and amount of Chlamydia-infected cells
